23 compounds from PubChem BioAssay AID330 (DTP/NCI, 2004) can be followed below.

The assay relates to P388 leukemia ip, CD2F1 mice, survival T/C. The experiment in a line: NCI In Vivo Anticancer Drug Screen. Data for tumor model P388 Leukemia (intraperitoneal) in CD2F1 (CDF1) mice. To be noted: endpoint: median survival time, higher = longer survival. The essentials:
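Mice carrying the transplanted tumor received test compound or vehicle. Survival was recorded in each group, and the value is the treated-group measurement divided by that of the vehicle-treated control group.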

The mark [1] stands for this setting: dose: 100.0 mg/kg/injection, schedule: Q01DX009 (ip), vehicle: saline with Tween-80.
The mark [2] stands for this setting: dose: 200.0 mg/kg/injection, schedule: Q01DX009 (ip), vehicle: saline with Tween-80.
The mark [3] stands for this setting: dose: 60.0 mg/kg/injection, schedule: Q01DX005 (ip), vehicle: saline with Tween-80.
The mark [4] stands for this setting: dose: 120.0 mg/kg/injection, schedule: Q01DX005 (ip), vehicle: saline with Tween-80.
Where [5] appears, read: dose: 240.0 mg/kg/injection, schedule: Q01DX005 (ip), vehicle: saline with Tween-80.
The mark [6] stands for this setting: dose: 50.0 mg/kg/injection, schedule: Q01DX005 (ip), vehicle: saline with Tween-80.
Setting [7] is: dose: 100.0 mg/kg/injection, schedule: Q01DX005 (ip), vehicle: saline with Tween-80.
Where [8] appears, read: dose: 200.0 mg/kg/injection, schedule: Q01DX005 (ip), vehicle: saline with Tween-80.
[9] abbreviates: dose: 50.0 mg/kg/injection, schedule: Q01DX005 (ip), vehicle: Klucel (hydroxypropylcellulose) (HPC).
Where [10] appears, read: dose: 100.0 mg/kg/injection, schedule: Q01DX005 (ip), vehicle: Klucel (hydroxypropylcellulose) (HPC).
Where [11] appears, read: dose: 200.0 mg/kg/injection, schedule: Q01DX005 (ip), vehicle: Klucel (hydroxypropylcellulose) (HPC).
Setting [12] is: dose: 50.0 mg/kg/injection, schedule: Q01DX009 (ip), vehicle: saline.
Where [13] appears, read: dose: 100.0 mg/kg/injection, schedule: Q01DX009 (ip), vehicle: saline.
Setting [14] is: dose: 200.0 mg/kg/injection, schedule: Q01DX009 (ip), vehicle: saline.
[15] abbreviates: dose: 12.5 mg/kg/injection, schedule: Q01DX009 (ip), vehicle: saline with Tween-80.
Setting [16] is: dose: 25.0 mg/kg/injection, schedule: Q01DX009 (ip), vehicle: saline with Tween-80.
[17] abbreviates: dose: 50.0 mg/kg/injection, schedule: Q01DX009 (ip), vehicle: saline with Tween-80.

Molecules are shown by their SMILES. Values joined by “and” are separate entries in the source; they are usually repeats but may differ in a detail not shown here. Equal entries are not always repeated. Inconclusive results and toxic doses are left out. Square brackets hold non-standard residues; d marks the D form. Peptide text beside a SMILES is read from it. * marks the point of attachment. ξ: configuration not given here. ξF = NC(Cc1ccccc1)C(=O)O; Cbz = O=C(OCc1ccccc1)*

Consider `Nc1cc2c3cccnc3ccc2c2ncccc12`, for which the T/C is, setting by setting: (dose: 100.0 mg/kg/injection, schedule: Q01DX001 (ip), vehicle: saline with Tween-80) 94 % of control; (dose: 200.0 mg/kg/injection, schedule: Q01DX001 (ip), vehicle: saline with Tween-80) 89 % of control; (dose: 400.0 mg/kg/injection, schedule: Q01DX001 (ip), vehicle: saline with Tween-80) 95 % of control.
Take `CCOC(=O)C(Cc1ccccc1)NC(=O)N(CCCl)CCCl` (centres undefined): the T/C (dose: 66.0 mg/kg/injection, schedule: Q04DX003 (ip), vehicle: saline with Tween-80) was 109 % of control; the T/C under setting [1] is 109 % of control; the T/C (dose: 150.0 mg/kg/injection, schedule: Q04DX003 (ip), vehicle: saline with Tween-80) was 113 % of control; the T/C under setting [2] is 122 % of control.
Regarding `O=C(Nc1cccc(S(=O)(=O)F)c1)Oc1ccc([N+](=O)[O-])cc1`, the T/C by setting is: under setting [3], 113 % of control; under setting [4], 111 % of control; under setting [5], 93 % of control.
On to `CCN(CC)CCCC(C)Sc1ccnc2cc(Cl)ccc12` (centres undefined), for which the T/C is 95 % of control under setting [6], 101 % of control under setting [7] and 106 % of control under setting [8].
For `C=Cc1c(Cl)nc(C)c(C)c1-c1ccc(OC)c(OC)c1OCc1ccccc1`, the T/C is, setting by setting: under setting [9], 92 % of control; under setting [10], 104 % of control; under setting [11], 91 % of control.
With `O=C(CNC(=O)Nc1ccc(NC(=O)NCC(=O)Nc2ccc(C3=NCCN3)cc2)cc1)Nc1ccc(C2=NCCN2)cc1`, the T/C is 105 % of control and 106 % of control under setting [12]; 93 % of control under setting [13]; 111 % of control and 97 % of control under setting [14].
Turning to `COc1ccc(C(=O)N/N=C(\C)[C@]2(O)Cc3c(O)c4c(c(O)c3[C@@H](OC3CC(N)C(O)C(C)O3)C2)C(=O)c2c(OC)cccc2C4=O)cc1` (some centres undefined), the T/C is 119 % of control (dose: 0.12 mg/kg/injection, schedule: Q01DX009 (ip), vehicle: water); 151 % of control (dose: 0.5 mg/kg/injection, schedule: Q01DX009 (ip), vehicle: water); 158 % of control and 164 % of control (dose: 1.0 mg/kg/injection, schedule: Q01DX009 (ip), vehicle: water); 174 % of control and 190 % of control (dose: 2.0 mg/kg/injection, schedule: Q01DX009 (ip), vehicle: water); 181 % of control and 211 % of control (dose: 4.0 mg/kg/injection, schedule: Q01DX009 (ip), vehicle: water); 112 % of control (dose: 6.0 mg/kg/injection, schedule: Q04DX003 (ip), vehicle: water). For the same compound, the T/C reads like this: (dose: 12.0 mg/kg/injection, schedule: Q04DX003 (ip), vehicle: water) 121 % of control; (dose: 24.0 mg/kg/injection, schedule: Q04DX003 (ip), vehicle: water) 166 % of control; (dose: 48.0 mg/kg/injection, schedule: Q04DX003 (ip), vehicle: water) 118 % of control.
Turning to `O=C(CNC(=O)OCc1ccccc1)NC(Cc1ccccc1)C(=O)O` (stereo not drawn) (Cbz-Gly-[ξF]-OH), the T/C is 105 % of control under setting [9], 100 % of control under setting [10] and 104 % of control under setting [11].
With `CC1=NCCCN(CCN(C)C)CCCN=C(C)C2CCCC1[N-]2.[Ni+2].[O-][Cl+3]([O-])([O-])O`, the T/C runs as follows: (dose: 6.25 mg/kg/injection, schedule: Q01DX001 (ip), vehicle: saline) 100 % of control; (dose: 12.5 mg/kg/injection, schedule: Q01DX001 (ip), vehicle: saline) 100 % of control; (dose: 25.0 mg/kg/injection, schedule: Q01DX001 (ip), vehicle: saline) 100 % of control and 102 % of control.
With `Cn1c(COc2ccc(/C=N/Nc3ccnc(N/N=C/c4ccc(OCc5c[n+]6ccccc6n5C)cc4)n3)cc2)c[n+]2ccccc12`, the T/C (dose: 12.5 mg/kg/injection, schedule: Q01DX005 (ip), vehicle: saline with Tween-80) is 105 % of control; the T/C (dose: 25.0 mg/kg/injection, schedule: Q01DX005 (ip), vehicle: saline with Tween-80) was 106 % of control; the T/C under setting [6] was 104 % of control and 107 % of control; the T/C under setting [7] is 99 % of control; the T/C under setting [8] was 97 % of control.
On to `COC(=O)N1C(=O)CO[C@@H]1C(C)(C)C`, for which the T/C under setting [3] is 103 % of control, the T/C under setting [4] is 99 % of control and the T/C under setting [5] is 104 % of control.
With `CC(CCOc1ccc2ccc(=O)oc2c1)C1=CC(=O)C(C)(C)O1` (centres undefined), the T/C by setting is: under setting [15], 103 % of control; under setting [16], 90 % of control; under setting [17], 116 % of control; under setting [1], 116 % of control.
Take `CN1C(=O)C2CC(=O)NC(=O)C2C1=O` (centres undefined): the T/C by setting is: under setting [6], 97 % of control; under setting [7], 96 % of control; under setting [8], 101 % of control.
Turning to `CCSc1ccc2c(cc1=O)C(N)CCc1cc(OC)c(OC)c(OC)c1-2` (centres undefined), the T/C was 96 % of control (dose: 50.0 mg/kg/injection, schedule: Q01DX009 (ip), vehicle: Klucel (hydroxypropylcellulose) (HPC)) and 121 % of control (dose: 100.0 mg/kg/injection, schedule: Q01DX009 (ip), vehicle: Klucel (hydroxypropylcellulose) (HPC)).
For `NC(=S)N/N=C/c1cccnc1`, the T/C by setting is: under setting [16], 92 % of control; under setting [17], 92 % of control; under setting [1], 99 % of control; under setting [2], 92 % of control.
On to `CC(=O)C(N=Nc1cc([N+](=O)[O-])cc(S(=O)(=O)O)c1O)C(=O)Nc1ccccc1.[Cr]` (centres undefined), for which the T/C runs as follows: under setting [12], 107 % of control; under setting [13], 99 % of control; under setting [14], 97 % of control.
Turning to `CN(C=O)CCN(C)C=O`, the T/C reads like this: (dose: 100.0 mg/kg/injection, schedule: Q04DX002 (ip), vehicle: saline) 96 % of control; (dose: 200.0 mg/kg/injection, schedule: Q04DX002 (ip), vehicle: saline) 99 % of control; (dose: 400.0 mg/kg/injection, schedule: Q04DX002 (ip), vehicle: saline) 104 % of control.
Regarding `Cc1cc(C)c(S(=O)(=O)NN)c(C)c1`, the T/C under setting [16] is 104 % of control, the T/C under setting [17] was 104 % of control, the T/C under setting [1] is 100 % of control and the T/C under setting [2] was 95 % of control.
As for `CC(=O)N(C)N(Cc1ccc([N+](=O)[O-])cc1)C(C)=O`, the T/C (dose: 25.0 mg/kg/injection, schedule: Q01DX009 (ip), vehicle: other) is 95 % of control; the T/C (dose: 50.0 mg/kg/injection, schedule: Q01DX009 (ip), vehicle: other) was 102 % of control; the T/C (dose: 100.0 mg/kg/injection, schedule: Q01DX009 (ip), vehicle: other) is 93 % of control; the T/C (dose: 200.0 mg/kg/injection, schedule: Q01DX009 (ip), vehicle: other) is 93 % of control; the T/C (dose: 400.0 mg/kg/injection, schedule: Q01DX009 (ip), vehicle: other) is 89 % of control.
Regarding `CN(C)C(=S)NCc1ccccc1`, the T/C (dose: 100.0 mg/kg/injection, schedule: Q04DX003 (ip), vehicle: saline with Tween-80) was 100 % of control and the T/C (dose: 200.0 mg/kg/injection, schedule: Q04DX003 (ip), vehicle: saline with Tween-80) is 100 % of control.
As for `COc1ccc(CC2c3cc(OC)c(OC)c(OC)c3CC[N+]2(C)C)cc1Oc1ccc(CC2c3cc4c(c(OC)c3CCN2C)OCO4)cc1` (centres undefined), the T/C runs as follows: (dose: 3.13 mg/kg/injection, schedule: Q04DX002 (ip), vehicle: saline) 99 % of control; (dose: 6.25 mg/kg/injection, schedule: Q04DX002 (ip), vehicle: saline) 103 % of control.
`c1ccc(CCNCCN2CCNCC2)cc1`: the T/C runs as follows: (dose: 60.0 mg/kg/injection, schedule: Q01DX005 (ip), vehicle: saline) 108 % of control; (dose: 120.0 mg/kg/injection, schedule: Q01DX005 (ip), vehicle: saline) 99 % of control.
Turning to `CCCCCCCCCCCCCCCCN(C)CCO`, the T/C reads like this: under setting [15], 104 % of control; under setting [16], 106 % of control; under setting [17], 99 % of control.
